Source: ChEMBL document CHEMBL1130538, “Catalytic mechanism of KDO8P synthase: synthesis and evaluation of a putative reaction intermediate” (Bioorg Med Chem Lett, 1997)

What was measured:
[1] = The inhibitory activity against KDO 8-P synthase was determined; set-up: species or system Escherichia coli
[2] = Half-life was determined at pD 7.0 and 25 degree Centigrade; format: ADME; details: pH 7
[3] = Half-life was determined at pD 7.0 and 37 degree Centigrade; format: ADME; details: pH 7

Ki [1]: 35 µM
half-life [2]: 4.7 h
half-life [3]: 2.5 h
Compound: O=C(O)C1(OP(=O)(O)O)CC(O)C(O)C([C@H](O)COP(=O)(O)O)O1 (stereo partly drawn)
